From patent publication US20160376605A1, “WHEAT PLANTS HAVING INCREASED TOLERANCE TO IMIDAZOLINONE HERBICIDES” (BASF SE, priority 2003, published 2016)

Legend:
[1] = tested on: Durum line UT12; experiment: Greenhouse Trial: plant injury rating, imazamox; format: in vivo, Durum wheat; details: 0-9 scale, 0 = no injury, 9 = plant death
Experimental: Fifteen Durum lines, each derived from a different M2 plant, and two wild type durum lines were evaluated for tolerance to the imidazolinone herbicide imazamox at rates of 100 and 160 g/ha in a greenhouse trial. Evaluations of tolerance were made at 14 and 21 days after treatment. Injury was scored on a 0-9 scale, with 0 representing no injury and 9 plant death.

[2] = tested on: susceptible durum wheat; experiment: Imazamox rate killing susceptible wheat; format: in vivo
Experimental: Nine M4:6 lines derived from four M2 plants (C119, C132, C137, CO12) were evaluated in a replicated trial at one location in a durum growing area in Italy. 75 g/ha of imazamox was applied to BBCH growth stage 21-25 plants. A rate of 35 g/ha would typically result in virtually 100% mortality of susceptible wheat. Percent crop response (overall injury) varied from 0 to 13% 21 days after treatment (DAT), and from 0 to 17% 43 DAT. Yield as a percent of the same line untreated varied from 85% to 102%.
All tested lines survived at both rates of herbicide treatment, whereas all plants of the wild type were killed at both rates. Based on comparison to the wild type line, all lines tested expressed considerable tolerance to the applied rates, particularly when looking at height reduction relative to untreated plots. A rate of 35 g/ha imazamox is adequate to kill susceptible durum wheat.
A rate of 35 g/ha imazamox is adequate to kill susceptible Durum wheat.

## COCc1cnc(C2=NC(C)(C(C)C)C(=O)N2)c(C(=O)O)c1 (stereo not drawn) [imazamox]
[1]; imazamox 100 g/ha, 14 DAT
  Average plant injury rating: 4.8
[1]; imazamox 100 g/ha, 21 DAT
  Average plant injury rating: 2.1
[1]; imazamox 160 g/ha, 14 DAT
  Average plant injury rating: 5.7
[1]; imazamox 160 g/ha, 21 DAT
  Average plant injury rating: 2.8
[2]; imazamox application rate
  rate adequate to kill susceptible durum wheat: 35 g/ha
[2]; read-out: mortality of susceptible wheat
  mortality at 35 g/ha: ~100%
